Data reported in the OPERA property sets (Mansouri et al. 2018).

Settings: for log10 BCF / log10 biotransformation half-life (days): fish

| Structure (SMILES) | boiling point [°C] | melting point [°C] | further results |
| --- | --- | --- | --- |
| CCC(Cl)[N+](=O)[O-] (stereo unspecified) | 142 | – | – |
| Cc1ccc(C(=O)c2csc(S(N)(=O)=O)c2)cc1 | – | 176 | – |
| CC(C)(C)c1ccc(C(=O)O)cc1 | – | 164 | ready biodegradability: not readily biodegradable; log10 BCF: 0.66 |
| C=CCOP(=O)(OCC=C)OCC=C | – | – | log10 BCF: 0.08 |
| CN1C(=O)C(O)N=C(c2ccccc2Cl)c2cc(Cl)ccc21 (stereo unspecified) | – | 206 | – |
| CCC(C)(C)Cl | 85.5 | -73.5 | – |
| CC(C)(C)N(NC(=O)c1ccccc1)C(=O)c1ccccc1 | – | 178 | – |
| CCC(C(C)=O)C(=O)OC (stereo unspecified) | 182 | – | – |
| O=C(O)c1cc(O)c(O)c(O)c1 | – | – | ready biodegradability: readily biodegradable |
| COc1ccc(Cl)nn1 | – | 84.5 | – |
| Oc1cc(Cl)c(Cl)cc1Cl | 247 | 69 | log10 Koc (L/kg): 3.36; log10 vapour pressure (mmHg): -2.12; ready biodegradability: not readily biodegradable; log10 BCF: 2.73 |
| N#CCCN(CCO)c1ccc(N=Nc2ccc([N+](=O)[O-])cc2Cl)cc1 | – | 157 | – |
| Clc1cccc2ncccc12 | 256 | 45 | – |
| CC(C)(C)c1cc(CCC(=O)OCC(COC(=O)CCc2cc(C(C)(C)C)c(O)c(C(C)(C)C)c2)(COC(=O)CCc2cc(C(C)(C)C)c(O)c(C(C)(C)C)c2)COC(=O)CCc2cc(C(C)(C)C)c(O)c(C(C)(C)C)c2)cc(C(C)(C)C)c1O | – | – | ready biodegradability: not readily biodegradable |
| OC[C@]1(O)OC[C@@H](O)[C@H](O)[C@@H]1O | – | 134 | – |
| CC(C)CO[N+](=O)[O-] | 123 | – | log10 Henry constant (atm·m³/mol): -2.65; log10 vapour pressure (mmHg): 0.919 |
| CCCCOCCOC(=O)COc1cc(Cl)c(Cl)cc1Cl | – | – | log10 vapour pressure (mmHg): -5.82 |
| ClC1CCCCC1 | 142 | -44 | log10 vapour pressure (mmHg): 0.828; ready biodegradability: not readily biodegradable; log10 BCF: 2.34; log10 biotransformation half-life (days): 0.41 |
| Nc1ccc(Cl)cc1N | 229 | 76 | – |
| Clc1cccc(C(Cl)(Cl)Cl)c1 | 255 | 0.6 | – |
| Cc1cccc2ccoc12 | 190 | 109 | – |
| CC(=O)O[C@]1(C(C)=O)CC[C@H]2[C@@H]3CCC4=CC(=O)CC[C@]4(C)[C@@]3(F)[C@@H](O)C[C@@]21C | – | 268 | – |

| Structure (SMILES) | boiling point [°C] | melting point [°C] | further results |
| --- | --- | --- | --- |
| CC(=O)c1cccc2ccccc12 | 297 | 34 | log10 vapour pressure (mmHg): -3.41 |
| COc1ccc(C)cc1N | 235 | 53 | ready biodegradability: not readily biodegradable; log10 BCF: 0.55; log10 biotransformation half-life (days): -1 |
| CCCCC(C)CCCC(C)C (stereo unspecified) | – | – | log10 biotransformation half-life (days): 0.32 |
| Fc1ccc(C(F)(F)F)cc1 | 104 | -41.7 | – |
| CCCCCCOc1ccccc1 | 240 | -19 | – |
| COc1cccc(N(C)C(=S)Oc2cccc(C(C)(C)C)c2)n1 | – | 86 | – |
| CC(C)(CC(=O)O)c1ccccc1 | – | 60 | – |
| CCC(O)C(CC(C)N(C)C)(c1ccccc1)c1ccccc1 (stereo unspecified) | – | 127 | – |
| CC(=O)OC(C)CC(C)C (stereo unspecified) | 148 | -64 | log10 vapour pressure (mmHg): 0.602; ready biodegradability: readily biodegradable |
| Clc1ccc(Cc2ccccc2)cc1 | 299 | 7.5 | – |
| CNC(=O)Oc1ccc2c(c1)[C@]1(C)CCO[C@@H]1N2C | – | 124 | – |
| O=C(O)c1ccccc1I | – | 163 | ready biodegradability: not readily biodegradable |
| COc1ccc(C(=CC(=O)N2CCOCC2)c2ccc(Cl)cc2)cc1OC | – | 148 | log10 vapour pressure (mmHg): -8.13 |
| CC(CC(C)(C)C)CC(C)(C)CC(C)(C)C (stereo unspecified) | – | – | ready biodegradability: not readily biodegradable; log10 BCF: 3.82; log10 biotransformation half-life (days): 1.81 |
| C1CCC(NC2CCCCC2)CC1 | 256 | -0.1 | log10 vapour pressure (mmHg): -1.47; ready biodegradability: readily biodegradable |
| CN(C)c1ccccn1 | 196 | 182 | – |
| O=S(=O)(Sc1ccccc1)c1ccc(Cl)cc1 | – | -86.8 | – |
| B1Oc2ccccc2O1 | – | 12 | – |
| Clc1ccc(OCOCC#CI)cc1 | – | – | ready biodegradability: not readily biodegradable |
| CCOc1ccc(NS(=O)(=O)c2ccc(N)cc2)nn1 | – | 183 | – |
| CC(C)(O)C#N | 171 | -19 | log10 vapour pressure (mmHg): -0.467; ready biodegradability: readily biodegradable |
| Cc1cc(Cl)ccc1O | 209 | 51 | log10 vapour pressure (mmHg): -1.62; ready biodegradability: not readily biodegradable; log10 BCF: 1.33; log10 biotransformation half-life (days): -0.83 |
